Where two headings read alike, the source gives them in different places. Starred links: 1 amine or outer side, 2 acyl side, 3 side chain; linkers in the order of their positions; H or OH if unused. Non-standard residues stand in square brackets, D forms with d. Residues, ends and D or L forms follow the SMILES beside them. Groups on a side chain read outwards from the residue. No end group written: not given here. *: point of attachment. C20 diacid = O=C(O)CCCCCCCCCCCCCCCCCCC(=O)*; γGlu = O=C(O)[C@H](CCC(=O)[*:2])N[*:1]; αMeL = CC(C)C[C@](C)(N)C(=O)O; Iva = CC[C@](C)(N)C(=O)O; AEEA = NCCOCCOCC(=O)O; Aib = CC(C)(N)C(=O)O
Columns and labels:
[1] = In vivo efficacy in diet-induced obesity (DIO) rat model; details: DIO rats; for 24h food intake compared with the model group / cumulative food intake compared with the model group: after dose adjustment; for cumulative food intake: entire administration period (before and after dose adjustment)
Experimental: In this experiment, a DIO rat model established on a 45% high-fat diet (HFD) was used to evaluate the effects of compounds on obesity-related indicators in DIO rats.
After one week of acclimatization, all rats were randomly divided into two groups: a normal group and a model group. The rats in the model group were then fed 45% HFD (Medison: MD12032), while the rats in the normal group were fed normal food. The body weight of the rats was measured weekly to monitor the modeling process.
DIO rats fed a high-fat diet for 37 weeks were weighed, and 75 DIO rats (approximately 1100g) and 8 rats (approximately 800g) on a normal diet (Chow diet) were selected and separated into individual cages. Each cage was fed approximately 100g of food at a time, and the food was changed every 48 hours. A preliminary sham dose experiment was then conducted. Subcutaneous acupuncture was performed on the neck once daily at 4 pm for 9 consecutive days. Body weight was measured before each acupuncture session and the effect of sham dose on body weight was observed. A curve of body weight changes over time was plotted. The formal dosing experiment was initiated after the body weight had stabilized.
Six Chow diet rats (weighing approximately 800g) and 30 HFD rats (weighing approximately 1100g) were selected through a preliminary sham dose experiment for subsequent dosing experiments. […] During the experiment, all rats were housed in single cages. The compound was dissolved in PBS solution at pH 7.4. On the day of grouping (Day 1), rats in each group were given the drug by subcutaneous injection in the neck according to their body weight, once daily (QD), as detailed in Table 9. […] The body weight was measured once daily at 15:00 or before administration, and a curve of body weight changes over time was plotted. Food intake: 1-7 days, measured once daily at 15:00 or before administration; 8-40 days, measured once every three days at 15:00 or before administration. A curve of changes in daily/cumulative food intake over time was plotted. Table 9. Dosing information for experimental groups

[2] = Pharmacokinetics in mice after single intravenous injection; design: species or system C57 mice; details: mouse, in vivo, male C57 mice, single intravenous dose 200 nmol/kg, plasma
Outline: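 Male C57 mice (~25 g, 4-6 weeks, n=3) received a single i.v. dose of 200 nmol/kg in 1×PBS. Plasma collected from 5 min to 72 h was methanol-precipitated with verapamil internal standard and quantified by LC-MS (ESI positive, MRM); PK parameters were calculated by PKSolver.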

human GIPR = molecular target: T1, human GIPR (Homo sapiens, UniProt P48546); assay: cAMP HTRF agonist activity assay in CHO-K1 cells expressing GIPR; assay type: cell-based; as to Activity against human GIPR (EC50 nM): 5% FBS, 0.1% Casein
T1 construct: expressed in transfected cells; host or cells: CHO-K1 clonal cell line
T1 sequence (P48546 22-466): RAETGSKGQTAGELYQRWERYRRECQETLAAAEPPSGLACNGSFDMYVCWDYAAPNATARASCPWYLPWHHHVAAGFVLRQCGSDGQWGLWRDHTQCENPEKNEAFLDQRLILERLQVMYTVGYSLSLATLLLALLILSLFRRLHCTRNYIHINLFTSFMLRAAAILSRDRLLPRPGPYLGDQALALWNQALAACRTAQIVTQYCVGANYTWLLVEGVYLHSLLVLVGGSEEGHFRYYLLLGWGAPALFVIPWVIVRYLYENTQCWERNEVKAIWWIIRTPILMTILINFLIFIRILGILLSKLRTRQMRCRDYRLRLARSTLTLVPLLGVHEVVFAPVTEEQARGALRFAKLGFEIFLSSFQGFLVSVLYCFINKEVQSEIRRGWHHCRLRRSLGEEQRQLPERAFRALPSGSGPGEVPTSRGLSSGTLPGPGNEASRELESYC
Outline: (§1)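 Clonal CHO-K1 lines, 5000 cells/well, exposed to polypeptides for 30 min at 37°C. Intracellular cAMP read by HTRF (cAMP-d2 conjugate plus anti-cAMP-Eu cryptate in lysis buffer). Relative EC50 from four-parameter nonlinear fit of percent maximum response against concentration.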

[3] = In vivo efficacy in diet-induced obesity (DIO) mouse model; design: species or system C57BL/6J mice; details: 10 nmol/kg subcutaneous once daily for 24 days; for body weight reduction at the experimental endpoint: DIO mice
Excerpt: In this example, a DIO mouse model established by high-fat diet induction was used to evaluate the effects on and improvement of obesity and diabetes-related indicators in DIO mice after subcutaneous injection of some of the compounds in the present disclosure.
4.1 Experimental methods: Obese male C57BL/6J mice (23-24 weeks old, obtained from Beijing Vital River Laboratory Animal Technology Co., Ltd.) induced by a high-fat diet were purchased. Six-week-old male C57BL/6J mice were fed a 60% high-fat diet (RD D12492) until their body weight reached 45-50g to obtain DIO model mice. After arriving at the facility and undergoing a week of acclimatization feeding, the animals were randomly divided into groups according to their body weight and administered vehicle (model group), LY3437943, Compound 15, Compound 16, Compound 17 and Compound 18 via subcutaneous injection in the neck. The compound was administered at a dose of 10 nmol/kg, and the frequency of administration was once daily via subcutaneous injection for 24 days. Each group contained 5 DIO mice. According to the experimental design, the body weight of each mouse was weighed and recorded daily at 3 pm or before administration, the average body weight of each group of mice was calculated, and a curve of body weight change over time was plotted. After the experiment, the fat and other organs of the mice were removed from various parts of the body, weighed, and recorded.

human GCGR = molecular target: T2, human GCGR (Homo sapiens, UniProt P47871); assay: cAMP HTRF agonist activity assay in CHO-K1 cells expressing GCGR; assay type: cell-based; details: read-out: Activity against human GCGR (EC50 nM); also: 5% FBS, 0.1% Casein
T2 construct: expressed in transfected cells; host or cells: CHO-K1 clonal cell line
Outline: as §1

human GLP-1R = molecular target: T3, human GLP-1R (Homo sapiens, UniProt P43220); assay: cAMP HTRF agonist activity assay in CHO-K1 cells expressing GLP-1R; assay type: cell-based; details: read-out: Activity against human GLP-1R (EC50 nM); also: 5% FBS, 0.1% Casein
T3 construct: expressed in transfected cells; host or cells: CHO-K1 clonal cell line
Outline: as §1

human glucagon receptor = human glucagon receptor (human, UniProt P47871 26-477); assay: cell-based or functional assay
[4] = molecular target: T4, human glucose-dependent insulinotropic polypeptide receptor (human, UniProt P48546 22-466); assay: cell-based or functional assay
T4 sequence (looked up): T1 sequence (P48546 22-466)

[5] = molecular target: human glucagon-like peptide-1 receptor (human, UniProt P43220 24-463); assay: cell-based or functional assay

Chain of human glucagon receptor (P47871 26-477): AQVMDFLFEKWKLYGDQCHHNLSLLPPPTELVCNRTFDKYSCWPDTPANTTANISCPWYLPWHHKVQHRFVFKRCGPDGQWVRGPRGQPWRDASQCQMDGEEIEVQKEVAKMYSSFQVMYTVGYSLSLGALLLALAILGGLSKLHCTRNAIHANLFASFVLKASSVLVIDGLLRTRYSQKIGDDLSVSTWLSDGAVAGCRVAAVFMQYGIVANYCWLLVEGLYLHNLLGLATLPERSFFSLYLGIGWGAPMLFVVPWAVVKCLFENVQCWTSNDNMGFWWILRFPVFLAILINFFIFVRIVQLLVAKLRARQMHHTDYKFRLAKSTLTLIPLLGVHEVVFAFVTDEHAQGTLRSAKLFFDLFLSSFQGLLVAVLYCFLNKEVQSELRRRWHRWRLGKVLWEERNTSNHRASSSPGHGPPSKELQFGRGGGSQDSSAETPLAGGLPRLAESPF
T3 sequence (P43220 24-463): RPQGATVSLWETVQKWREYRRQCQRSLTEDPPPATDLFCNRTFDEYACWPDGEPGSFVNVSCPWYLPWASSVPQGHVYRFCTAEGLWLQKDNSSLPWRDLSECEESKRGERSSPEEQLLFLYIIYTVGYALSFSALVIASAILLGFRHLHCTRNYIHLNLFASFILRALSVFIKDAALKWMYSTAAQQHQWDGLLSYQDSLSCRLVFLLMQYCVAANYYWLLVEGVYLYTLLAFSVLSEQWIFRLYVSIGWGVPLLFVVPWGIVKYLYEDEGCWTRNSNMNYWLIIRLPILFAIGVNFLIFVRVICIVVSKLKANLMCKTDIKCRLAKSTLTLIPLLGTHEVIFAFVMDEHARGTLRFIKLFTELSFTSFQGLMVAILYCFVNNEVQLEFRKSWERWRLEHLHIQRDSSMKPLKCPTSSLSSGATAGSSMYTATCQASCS
T2 sequence (P47871 26-477): as the sequence (P47871 26-477) above

CC[C@H](C)[C@H](NC(=O)[C@H](CO)NC(=O)[C@H](Cc1ccc(O)cc1)NC(=O)[C@H](CC(=O)O)NC(=O)[C@H](CO)NC(=O)[C@@H](NC(=O)[C@H](Cc1ccccc1)NC(=O)[C@@H](NC(=O)CNC(=O)[C@H](Cc1c[nH]cn1)NC(=O)C(C)(C)NC(=O)[C@@H](N)Cc1c[nH]cn1)[C@@H](C)O)[C@@H](C)O)C(=O)N[C@@H](CC(C)C)C(=O)N[C@@H](CC(C)C)C(=O)N[C@@H](CCC(=O)O)C(=O)N[C@@H](CCCCNC(=O)COCCOCCNC(=O)COCCOCCNC(=O)CC[C@H](NC(=O)CCCCCCCCCCCCCCCCCCC(=O)O)C(=O)O)C(=O)N[C@@H](CCCCN)C(=O)N[C@@H](C)C(=O)N[C@@H](C)C(=O)N[C@@H](CCC(N)=O)C(=O)N[C@@H](CCC(=O)O)C(=O)N[C@@H](Cc1ccccc1)C(=O)N[C@H](C(=O)N[C@@H](CCC(=O)O)C(=O)N[C@@H](Cc1c[nH]c2ccccc12)C(=O)N[C@@H](CC(C)C)C(=O)N[C@@H](CC(C)C)C(=O)N[C@@H](C)C(=O)NCC(=O)NCC(=O)N1CCC[C@H]1C(=O)N[C@@H](CO)C(=O)N[C@@H](CO)C(=O)NCC(=O)N[C@@H](C)C(=O)N1CCC[C@H]1C(=O)N1CCC[C@H]1C(=O)N1CCC[C@H]1C(=O)N[C@@H](CO)C(N)=O)C(C)C [Compound 0120] (H-H[Aib]HGTFTSDYSILLEK([AEEA-AEEA-γGlu-C20 diacid])KAAQEFVEWLLAGGPSSGAPPPS-NH2)
24h food intake compared with the model group ([1]; 3 nmol/kg subcutaneous QD): significantly reduced
cumulative food intake compared with the model group ([1]; 3 nmol/kg subcutaneous QD): significantly reduced
cumulative food intake ([1]; 0.3 then 3 nmol/kg subcutaneous QD): 258.8 ± 23.5 g
body weight loss at the end of the experiment ([1]; subcutaneous QD, 0.3 nmol/kg adjusted to 3 nmol/kg from day 15): 30.2%
body weight compared with the model group ([1]; subcutaneous QD, 1 nmol/kg, before adjusting the administration dose): decreasing trend
AUC(0-inf) [2]: 94.1 µM·h
C0 [2]: 9.93 µM
clearance ([2]; read-out: CLp): 2.04 mL/h/kg
half-life ([2]; read-out: T1/2 (converted)): 14.7 h
EC50 (human GIPR): 0.002 nM
body weight of DIO mice compared with the test group given the vehicle [3]: significant reduction in body weight
final body weight relative to body weight of mice on a normal diet (Chow) ([3]; indicating good safety): ≥ 80%
body weight reduction at the experimental endpoint [3]: 36.6%

CC[C@H](C)[C@H](NC(=O)[C@H](Cc1ccccc1)NC(=O)[C@H](C)NC(=O)C(C)(C)NC(=O)[C@H](CCC(N)=O)NC(=O)[C@H](C)NC(=O)[C@H](CCCCNC(=O)COCCOCCNC(=O)CC[C@H](NC(=O)CCCCCCCCCCCCCCCCCCC(=O)O)C(=O)O)NC(=O)[C@H](CCCCN)NC(=O)[C@H](CC(=O)O)NC(=O)[C@H](CC(C)C)NC(=O)[C@](C)(CC(C)C)NC(=O)[C@@H](NC(=O)[C@H](CO)NC(=O)[C@H](Cc1ccc(O)cc1)NC(=O)[C@H](CC(=O)O)NC(=O)[C@H](CO)NC(=O)[C@@H](NC(=O)[C@H](Cc1ccccc1)NC(=O)[C@@H](NC(=O)CNC(=O)[C@H](CCC(N)=O)NC(=O)C(C)(C)NC(=O)[C@@H](N)Cc1ccc(O)cc1)[C@@H](C)O)[C@@H](C)O)[C@@H](C)CC)C(=O)N[C@@H](CCC(=O)O)C(=O)N[C@@H](Cc1ccc(O)cc1)C(=O)N[C@@H](CC(C)C)C(=O)N[C@@H](CC(C)C)C(=O)N[C@@H](CCC(=O)O)C(=O)NCC(=O)NCC(=O)N1CCC[C@H]1C(=O)N[C@@H](CO)C(=O)N[C@@H](CO)C(=O)NCC(=O)N[C@@H](C)C(=O)N1CCC[C@H]1C(=O)N1CCC[C@H]1C(=O)N1CCC[C@H]1C(=O)N[C@@H](CO)C(N)=O [LY3437943, reference compound]
24h food intake compared with the model group ([1]; 10 nmol/kg subcutaneous QD): significantly reduced
cumulative food intake compared with the model group ([1]; 10 nmol/kg subcutaneous QD): significantly reduced
cumulative food intake ([1]; 1 then 10 nmol/kg subcutaneous QD): 273.8 ± 15.0 g
body weight loss at the end of the experiment ([1]; subcutaneous QD, 1 nmol/kg adjusted to 10 nmol/kg from day 15): 29.4%
EC50 (human GIPR; read-out: Activity against human GIPR (EC50 nM)): 0.002 nM
body weight of DIO mice compared with the test group given the vehicle [3]: significant reduction in body weight
body weight reduction at the experimental endpoint [3]: 30.4%
EC50 (human GCGR): 0.412 nM
EC50 (human GLP-1R): 0.08 nM

B1: Compound No. 0138 (peptide)
peptide: H[Aib]HGTFTSDLSI[αMeL]LEK([AEEA-AEEA-γGlu-C20 diacid])KAA[Iva]EFVEWLLAGGPSSGAPPPS-NH2
Activity against human GCGR (EC50 nM) (human glucagon receptor): 0.055 nM
Activity against human GIPR (EC50 nM) [4]: 0.0006 nM
Activity against human GLP-1R (EC50 nM) [5]: 0.019 nM

B2: Compound No. 0137 (peptide)
peptide: H[Aib]HGTFTSDYSI[αMeL]LEK([AEEA-AEEA-γGlu-C20 diacid])KAA[Iva]EFVEWLLAGGPSSGAPPPS-NH2
Activity against human GCGR (EC50 nM) (human glucagon receptor): 0.047 nM
Activity against human GIPR (EC50 nM) [4]: 0.001 nM
Activity against human GLP-1R (EC50 nM) [5]: 0.013 nM
